The structures appear in SMILES notation.

Usually Kd stands for a measure of binding affinity in units of concentration.

What all share (type): binding
Test [1] deals with T1, monomeric sarcosine oxidase (MSOX) (Bacillus sp. B-0618, UniProt P40859, K266M).
T1 sequence (P40859 2-390 K266M): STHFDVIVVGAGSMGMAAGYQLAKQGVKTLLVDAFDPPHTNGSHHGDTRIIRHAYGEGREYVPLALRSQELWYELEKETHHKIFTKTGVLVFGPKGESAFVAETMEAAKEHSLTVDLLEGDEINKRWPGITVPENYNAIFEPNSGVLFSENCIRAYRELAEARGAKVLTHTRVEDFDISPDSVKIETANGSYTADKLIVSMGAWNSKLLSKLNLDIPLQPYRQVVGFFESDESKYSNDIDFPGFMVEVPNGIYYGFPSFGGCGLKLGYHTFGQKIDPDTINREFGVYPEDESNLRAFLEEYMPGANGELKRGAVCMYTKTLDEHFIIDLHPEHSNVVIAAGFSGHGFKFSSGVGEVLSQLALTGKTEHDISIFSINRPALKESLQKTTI
Put plainly: absorption spectral titration of charge transfer band.

Test [2] addresses T2, monomeric sarcosine oxidase (MSOX) (Bacillus sp. B-0618, UniProt P40859, K266R).
T2 sequence (P40859 2-390 K266R): T1 sequence (P40859 2-390 K266M)
The test is described as above.

The target in test [3] is T1, monomeric sarcosine oxidase (MSOX). Put plainly: stopped-flow diode array, initial charge transfer absorbance.
The target of test [4] is T2, monomeric sarcosine oxidase (MSOX). The test is described as above.

Take `CSCC(=O)O` [methylthioacetate]: the Kd amounted to 13.3 ± 0.3 mM in test [1] and 6.9 ± 0.1 mM in test [2].

Consider `CNCC(=O)O` [sarcosine, N-methylglycine], for which the Kd in test [3] amounted to 58 ± 10 mM; in test [4] it was 34 ± 1 mM.
